Measured values: ChEMBL document CHEMBL1201862, “PubChem BioAssay data set” (2004)
Activity calls are given as the source filed them.

Key:
[1] = toxicity toward HepG2 liver cells – cell-based, plate reader, cherry-pick, antagonist series, cytotoxicity control, dose response (AID 743416); format: functional
[2] = system: Streptococcus sp. 'group A'; experiment: Streptococcus pyogenes SK(-)GAS viability under kanamycin – luminescence, BacTiterGlo, confirmation, counter-screen for streptokinase expression inhibitor project, dose response (AID 1900); format: functional, organism-based
[3] = Luminescence-based counterscreen assay for KLF5 inhibitors: dose response cell-based high throughput screening assay to identify cytotoxic compounds using the IEC-6 intestinal epithelial cell line. [Related pubchem assays: 1700 (Primary screen.), 1834 (Confirmation screen.), 1858 (Summary AID.), 1905 (Counterscreen.)]; format: functional
[4] = blockade of melanocortin 4 receptor signaling – cell-based, plate reader, cherry pick, counter-screen for LGR2 antagonist project, dose response (AID 743444); format: functional;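 note: transfected HEK 293 cells stimulated with alpha-MSH peptide; potency of inhibitors of the alpha-MSH evoked signal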
[5] = blockers of bursicon-stimulated LGR2 cAMP reporter – cell-based, HEK293, CRE-luciferase reporter, cherry pick, set 2, dose response (AID 743343); format: functional;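 note: transfected cells were stimulated with diluted bursicon conditioned medium after compound addition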
[6] = A549 cell cytotoxicity, dose response, cytotoxicity control, plate reader, cherry-pick, antagonist series (AID 743412); format: functional, cell-based
Streptokinase A = target: T1, Streptokinase A (Streptococcus pyogenes serotype M1, UniProt P10520); experiment: viability-normalized secreted streptokinase activity reduction – plasminogen activation absorbance, OD405, dose response (AID 1914); format: functional, Streptococcus pyogenes M1 GAS;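 note: secreted streptokinase activity via plasminogen activation per viability signal from cell pellet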
T1 sequence (P10520 whole entry): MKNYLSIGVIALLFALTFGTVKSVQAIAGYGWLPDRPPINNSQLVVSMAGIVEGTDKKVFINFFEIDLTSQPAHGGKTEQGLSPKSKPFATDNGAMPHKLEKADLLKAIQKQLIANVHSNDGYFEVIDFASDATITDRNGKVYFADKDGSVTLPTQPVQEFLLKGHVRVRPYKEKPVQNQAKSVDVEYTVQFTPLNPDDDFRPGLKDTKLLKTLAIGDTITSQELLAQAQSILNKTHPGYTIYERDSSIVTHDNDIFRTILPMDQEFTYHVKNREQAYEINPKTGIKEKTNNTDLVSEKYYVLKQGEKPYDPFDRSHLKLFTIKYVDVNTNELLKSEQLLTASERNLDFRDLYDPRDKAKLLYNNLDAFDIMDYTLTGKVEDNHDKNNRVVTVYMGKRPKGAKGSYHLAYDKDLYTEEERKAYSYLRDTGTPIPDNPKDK

[7] = viability loss in HEK293 cells – cell-based, plate reader, cherry-picked samples, cytotoxicity control, dose response (AID 743446); format: functional
Streptococcus = experiment: GAS UMAA2166 growth inhibition – luminescence, BacTiterGlo, counter-screen for streptokinase expression inhibitor project, dose response (AID 1915); format: functional, organism-based;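 note: potency for reduction of bacterial viability or growth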
Vero = experiment: mammalian cell viability reduction – secondary assay, cytotoxicity control for West Nile virus antiviral project, dose response (AID 1650); format: functional; details: Chlorocebus sabaeus
Exodeoxyribonuclease V = target: T2, Exodeoxyribonuclease V (Escherichia coli (strain K12), UniProt P04993+P07648+P08394); experiment: RecBCD inhibition via phage-restricted bacterial growth – absorbance, V66 E. coli, mutant T4 phage, counter-screen for AddAB inhibitor project, dose response (AID 492957); format: functional, cell-based, Escherichia coli str. K-12 substr. MG1655
T2 sequence (P04993 whole entry): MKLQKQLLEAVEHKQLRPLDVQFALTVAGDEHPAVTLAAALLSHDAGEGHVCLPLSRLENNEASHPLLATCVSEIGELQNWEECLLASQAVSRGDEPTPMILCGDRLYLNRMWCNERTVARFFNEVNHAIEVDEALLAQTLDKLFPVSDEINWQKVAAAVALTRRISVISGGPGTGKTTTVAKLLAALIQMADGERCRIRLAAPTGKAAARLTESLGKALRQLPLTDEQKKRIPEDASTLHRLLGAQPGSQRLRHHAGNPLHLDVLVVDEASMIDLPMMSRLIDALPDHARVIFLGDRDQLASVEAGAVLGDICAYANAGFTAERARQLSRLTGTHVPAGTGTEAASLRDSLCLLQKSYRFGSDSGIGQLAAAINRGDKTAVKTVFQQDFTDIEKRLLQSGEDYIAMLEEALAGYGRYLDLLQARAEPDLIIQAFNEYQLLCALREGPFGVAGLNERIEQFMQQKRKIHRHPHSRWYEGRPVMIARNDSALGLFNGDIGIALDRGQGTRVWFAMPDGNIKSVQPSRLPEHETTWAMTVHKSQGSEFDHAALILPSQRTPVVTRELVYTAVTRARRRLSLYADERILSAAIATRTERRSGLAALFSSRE
T2 sequence (P07648 whole entry): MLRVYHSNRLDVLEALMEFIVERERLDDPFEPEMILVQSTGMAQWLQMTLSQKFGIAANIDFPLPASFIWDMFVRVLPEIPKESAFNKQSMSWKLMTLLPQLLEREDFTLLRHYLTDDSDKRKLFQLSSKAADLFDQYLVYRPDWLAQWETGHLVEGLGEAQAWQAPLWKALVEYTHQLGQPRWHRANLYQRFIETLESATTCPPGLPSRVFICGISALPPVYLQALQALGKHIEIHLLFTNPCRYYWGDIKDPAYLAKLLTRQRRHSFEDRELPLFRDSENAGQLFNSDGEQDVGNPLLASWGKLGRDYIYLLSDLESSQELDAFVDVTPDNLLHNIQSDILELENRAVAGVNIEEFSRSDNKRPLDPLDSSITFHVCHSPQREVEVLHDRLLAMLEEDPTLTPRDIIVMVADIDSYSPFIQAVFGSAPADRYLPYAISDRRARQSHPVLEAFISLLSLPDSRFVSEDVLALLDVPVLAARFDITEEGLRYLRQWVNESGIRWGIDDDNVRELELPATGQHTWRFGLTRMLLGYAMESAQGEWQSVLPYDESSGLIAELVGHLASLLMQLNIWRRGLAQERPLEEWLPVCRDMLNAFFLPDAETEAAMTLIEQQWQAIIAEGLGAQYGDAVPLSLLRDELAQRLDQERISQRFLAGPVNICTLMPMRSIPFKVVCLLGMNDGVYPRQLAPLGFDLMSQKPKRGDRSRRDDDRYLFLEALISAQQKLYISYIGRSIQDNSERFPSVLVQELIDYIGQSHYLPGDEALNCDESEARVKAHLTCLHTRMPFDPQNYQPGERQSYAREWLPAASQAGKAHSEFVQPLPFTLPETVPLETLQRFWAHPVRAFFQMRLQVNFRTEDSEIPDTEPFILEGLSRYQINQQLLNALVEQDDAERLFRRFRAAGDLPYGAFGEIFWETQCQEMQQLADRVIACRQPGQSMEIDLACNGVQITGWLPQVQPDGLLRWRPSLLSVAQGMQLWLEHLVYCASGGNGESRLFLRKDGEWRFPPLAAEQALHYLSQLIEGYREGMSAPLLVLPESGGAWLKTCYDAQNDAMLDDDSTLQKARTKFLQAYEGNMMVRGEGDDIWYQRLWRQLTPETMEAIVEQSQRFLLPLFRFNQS
T2 sequence (P08394 whole entry): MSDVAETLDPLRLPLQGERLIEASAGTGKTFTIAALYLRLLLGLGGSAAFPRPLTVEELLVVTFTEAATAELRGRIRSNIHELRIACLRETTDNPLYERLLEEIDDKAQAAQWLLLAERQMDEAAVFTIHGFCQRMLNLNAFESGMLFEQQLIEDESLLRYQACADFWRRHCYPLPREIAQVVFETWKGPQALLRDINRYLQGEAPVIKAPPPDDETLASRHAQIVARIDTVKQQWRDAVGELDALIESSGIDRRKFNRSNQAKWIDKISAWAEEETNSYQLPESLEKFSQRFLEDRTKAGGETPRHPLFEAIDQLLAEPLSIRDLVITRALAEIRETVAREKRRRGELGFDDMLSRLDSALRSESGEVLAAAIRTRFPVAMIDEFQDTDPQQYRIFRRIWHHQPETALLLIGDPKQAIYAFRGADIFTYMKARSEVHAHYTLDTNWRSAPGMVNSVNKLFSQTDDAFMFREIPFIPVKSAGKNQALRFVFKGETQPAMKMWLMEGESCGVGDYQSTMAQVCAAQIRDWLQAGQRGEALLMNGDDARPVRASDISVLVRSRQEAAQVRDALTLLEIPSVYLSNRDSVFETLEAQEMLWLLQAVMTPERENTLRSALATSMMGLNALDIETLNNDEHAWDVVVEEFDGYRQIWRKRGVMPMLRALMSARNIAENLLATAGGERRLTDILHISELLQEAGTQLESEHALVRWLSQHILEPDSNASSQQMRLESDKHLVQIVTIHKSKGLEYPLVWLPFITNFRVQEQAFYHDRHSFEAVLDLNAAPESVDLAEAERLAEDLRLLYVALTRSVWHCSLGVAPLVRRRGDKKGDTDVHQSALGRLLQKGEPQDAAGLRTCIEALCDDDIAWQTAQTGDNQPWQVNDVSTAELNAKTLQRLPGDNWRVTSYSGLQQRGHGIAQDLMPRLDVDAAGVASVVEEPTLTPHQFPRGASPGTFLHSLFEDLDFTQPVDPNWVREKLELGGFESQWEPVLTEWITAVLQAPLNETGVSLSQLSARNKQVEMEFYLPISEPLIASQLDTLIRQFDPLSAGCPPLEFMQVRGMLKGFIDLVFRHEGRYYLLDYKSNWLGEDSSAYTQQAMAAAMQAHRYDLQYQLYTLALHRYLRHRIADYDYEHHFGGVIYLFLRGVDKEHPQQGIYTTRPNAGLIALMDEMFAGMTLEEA

[8] = Counterscreen for AddAB inhibitors: absorbance-based bacterial cell-based high throughput dose response assay for inhibitors of bacterial viability. [Related pubchem assays (depositor defined):AID435030, AID449728, AID449731, AID488942, AID488955, AID488956]; format: functional
[9] = decrease of insulin promoter-GFP reporter – imaging, high-content screening, mouse beta cells (AID 1628); format: functional; details: MIN6
[10] = alpha-synuclein stem-loop luciferase translation blockers – H4 neuroglioma cells, luminescence, confirmation (AID 1988); format: functional, cell-based
[11] = Luminescence Cell-Based Dose Response HTS to Identify Inhibitors of 5'UTR Stem-Loop Driven Prion Protein mRNA Translation in H4 Neuroglioblastoma Cells. [Related pubchem assays: 1827 (Project Summary), 1813 (Primary HTS)]; format: functional
INS1 = experiment: INS-1E survival protection against cytokine death – cell-based, luminescence, retest, dose response (AID 449756); format: functional; details: Rattus norvegicus;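 note: cell death triggered by IL-1 beta plus TNF-alpha plus IFN-gamma mixture; protective hits raise ATP signal compared with cytokine alone wells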
[12] = target: Induced myeloid leukemia cell differentiation protein Mcl-1 (Homo sapiens, UniProt Q07820); format: functional
Chain of Induced myeloid leukemia cell differentiation protein Mcl-1 (Q07820 whole entry): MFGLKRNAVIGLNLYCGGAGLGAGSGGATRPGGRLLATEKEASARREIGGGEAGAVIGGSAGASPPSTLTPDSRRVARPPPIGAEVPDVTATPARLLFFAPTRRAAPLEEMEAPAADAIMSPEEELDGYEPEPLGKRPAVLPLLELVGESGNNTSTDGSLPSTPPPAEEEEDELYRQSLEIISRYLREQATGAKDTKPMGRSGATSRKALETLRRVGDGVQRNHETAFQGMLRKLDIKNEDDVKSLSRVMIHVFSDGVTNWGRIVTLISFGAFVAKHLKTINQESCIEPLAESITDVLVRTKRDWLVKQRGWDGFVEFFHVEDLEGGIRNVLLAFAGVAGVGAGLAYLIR

[13] = MIN6 cell viability loss – mouse insulinoma, cytotoxicity control, dose response (AID 2122); format: functional;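 note: confirmatory high-throughput counterscreen run to flag cytotoxic compounds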
[14] = luciferase reporter signal suppression in cells – H4 neuroglioma cells, luminescence, dose response (AID 1990); format: functional, cell-based
Ephrin type-A receptor 4 = Ephrin type-A receptor 4 (Mus musculus, UniProt Q03137); experiment: EphA4 ligand-binding antagonists – biochemical, colorimetric, mouse EphA4, primary screen (AID 689); format: functional
Chain of Ephrin type-A receptor 4 (Q03137 whole entry): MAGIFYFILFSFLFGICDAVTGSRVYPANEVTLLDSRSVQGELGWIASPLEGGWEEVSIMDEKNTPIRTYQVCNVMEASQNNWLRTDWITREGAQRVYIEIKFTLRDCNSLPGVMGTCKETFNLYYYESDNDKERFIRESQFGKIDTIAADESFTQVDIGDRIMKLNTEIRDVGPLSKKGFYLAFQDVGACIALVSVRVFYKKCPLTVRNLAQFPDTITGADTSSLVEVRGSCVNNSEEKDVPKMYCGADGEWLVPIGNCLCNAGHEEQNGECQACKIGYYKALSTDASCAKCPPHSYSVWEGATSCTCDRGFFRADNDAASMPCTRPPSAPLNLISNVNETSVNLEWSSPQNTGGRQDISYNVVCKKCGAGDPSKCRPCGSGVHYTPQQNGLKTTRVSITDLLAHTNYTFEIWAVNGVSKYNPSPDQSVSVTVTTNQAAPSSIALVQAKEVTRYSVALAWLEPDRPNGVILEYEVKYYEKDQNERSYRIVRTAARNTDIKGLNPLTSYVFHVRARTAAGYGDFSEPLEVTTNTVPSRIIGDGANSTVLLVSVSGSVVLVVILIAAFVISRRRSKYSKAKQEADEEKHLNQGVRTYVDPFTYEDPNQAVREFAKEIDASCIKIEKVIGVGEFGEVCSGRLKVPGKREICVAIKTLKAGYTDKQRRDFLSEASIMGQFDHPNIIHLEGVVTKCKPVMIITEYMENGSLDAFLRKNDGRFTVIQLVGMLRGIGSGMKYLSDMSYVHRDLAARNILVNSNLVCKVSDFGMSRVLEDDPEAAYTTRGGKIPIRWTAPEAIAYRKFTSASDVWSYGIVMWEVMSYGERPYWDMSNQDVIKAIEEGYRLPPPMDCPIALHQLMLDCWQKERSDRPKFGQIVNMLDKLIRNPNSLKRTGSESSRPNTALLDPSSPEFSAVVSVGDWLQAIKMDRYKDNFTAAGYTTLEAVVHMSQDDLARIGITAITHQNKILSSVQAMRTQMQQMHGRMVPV

O=C(Nc1nc2cc3c(cc2s1)OCCO3)c1ccco1
AC50 [1]: 28.5 µM (active) | EC50 [2]: 19.5 µM (active) | IC50 [3]: 7.91 µM (active) | AC50 [4]: 1.07 µM (active) | AC50 [5]: 1.12 µM (active) | AC50 [6]: 12.9 µM (active) | EC50 (Streptokinase A): > 150 µM (not active) | AC50 [7]: 45.4 µM (active) | EC50 (Streptococcus): 53.5 µM (active)

COC(=O)C1=C(C(=O)OC)SC(=C2C(=S)C(C)(C)N(C(=O)CC(C)C)c3ccccc32)S1
CC50 (Vero): 49.5 µM (active)

Cc1ccc(C(C)C)c(OCc2ccc(C(=O)N/N=C/c3ccc(O)cc3O)cc2)c1
EC50 [2]: 1.3 µM (active) | IC50 (Exodeoxyribonuclease V): > 119 µM (inactive) | CC50 (Vero): 6.86 µM (active) | IC50 [8]: > 119 µM (inactive) | IC50 [9]: 1.03 µM (active) | EC50 [10]: 2.17 µM (active) | EC50 [11]: 8.36 µM (active) | AC50 (INS1): 1.24 µM (active) | IC50 [12]: 4.97 µM (active) | IC50 [13]: 1.04 µM (active) | EC50 (Streptococcus): 2.15 µM (active) | EC50 [14]: 3 µM (active)

CC(C)C1Cc2c(C#N)c(N)sc(=S)c2CO1 (stereo not drawn)
IC50 (Ephrin type-A receptor 4): 3.31 µM (active)
